Consider six compounds from patent publication US20050239874A1, “Novel analgesic and immunomodulatory cannabinoids” (University of Connecticut, priority 1998, published 2005).

The term Ki denotes the equilibrium dissociation constant of an inhibitor or competing ligand from its target.

Where two headings read alike, the source gives them in different places.

In one test the target is T1, CB2 receptor (Mus musculus, UniProt P47936).
T1 construct: Mouse spleen was used a source of CB2 receptors; from tissue; host or cells: mouse spleen
Nature of the test: Radioligand binding assay ([3H]CP-55,940 displacement), mouse spleen as source of CB2. As to conditions: for selectivity for the CB2 receptor: CB2 over CB1, statement in words. The protocol: (§1) Approximately 30 μg of tissue was incubated in silanized 96 well microtiter plate with TME containing 0.1% essentially fatty acid free bovine serum albumin (BSA), 0.8 nM CH^3]CP-55,940 and various concentrations of the test compound in a final volume of 200 μL. Assays were incubated at 30° C. for 1 hour. The samples were filtered using Packard Filtermate 196 and Whatman GF/C Filterplates and washed with wash buffer (TME) containing 0.5% BSA. Radioactivity was detected using MicroScint 20 scintillation cocktail added directly to the dried filterplates, and the filterplates were counted using a Packard Instruments Top-Count. Nonspecific binding was assessed using 100 nM CP-55,940. Data collected from three independent experiments performed with duplicate determinations were normalized between 100% and 0% specific binding for [H^3]CP-55,940, determined using buffer and 100 nM CP-55,940. The normalized data was analyzed using a 4 parameter nonlinear logistic equation to yield IC50 values. Data from at least two independent experiments performed in duplicate were used to calculate IC50 values which were convered to Ki values using the assumptions of Cheng and Prusoff, Biochem. Pharmacol., 22:3099 (1973), the entire teachings of which are incorporated herein by reference.
Mouse spleen was used a source of CB2 receptors to assess binding affinity of analogs described in this invention. The CB2 binding assay was conducted in the same manner as for CB1. Silanized centrifuge tubes were used throughout to minimize receptor loss due to adsorption.

Another test concerns the target T2, CB1 receptor (Rattus norvegicus, UniProt P20272).
T2 construct: using rat forebrain membranes as a source of CB1; from tissue; host or cells: rat forebrain (whole brain minus cerebral cortex) membranes
The test can be described thus: Radioligand binding assay ([3H]CP-55,940 displacement), rat forebrain membranes as source of CB1. On the procedure:
The binding affinities of the novel compounds described in this invention for the central cannabinoid receptor was assessed using rat forebrain membranes as a source of CB1. Membranes were prepared as described by the method of Dodd et al., Brain Res. 226:107 (1981), the entire teachings of which are incorporated herein by reference. Rat whole brains minus the cerebral cortex were diced with a razor blade and homogenized in 0.32 M sucrose, pH 7.4. The resulting suspension was spun at 400×g at 4° C. The supernatant was decanted and layered over 1.2 M sucrose in TME buffer (25 mM Tris base, 5 mM MgCl2 1 mMEDTA, pH 7.4) and spun at 109,000×g. The interface containing plasma membrane protein was collected, pooled and layered over 0.8 M sucrose in TME, pH 7.4. The pellet was carefully resuspended in TME, pH 7.4 and the total protein content was assayed by the method of Markwell et al., Anal. Biochem. 87:206 (1978), the entire teachings of which are incorporated herein by reference. Protein was aliquotted, frozen under liquid nitrogen and stored at −80° C. until use.
as §1

Where [1] appears, read: rat forebrain membranes, 0.8 nM [3H]CP-55,940, Ki from IC50 by Cheng and Prusoff, read-out: Ki in nM for the CB1 Receptor.
[2] abbreviates: Ki for the CB2 receptor, refers to Example 2.
Where [3] appears, read: Ki in nM for the CB2 Receptor, mouse spleen, [3H]CP-55,940, Ki from IC50 by Cheng and Prusoff.
Where [4] appears, read: Ki in nM for the CB1 Receptor, rat forebrain membranes, 0.8 nM [3H]CP-55,940, Ki from IC50 by Cheng and Prusoff.
Setting [5] is: Ki for the CB1 receptor, refers to Example 2.

T2 sequence (P20272 whole entry): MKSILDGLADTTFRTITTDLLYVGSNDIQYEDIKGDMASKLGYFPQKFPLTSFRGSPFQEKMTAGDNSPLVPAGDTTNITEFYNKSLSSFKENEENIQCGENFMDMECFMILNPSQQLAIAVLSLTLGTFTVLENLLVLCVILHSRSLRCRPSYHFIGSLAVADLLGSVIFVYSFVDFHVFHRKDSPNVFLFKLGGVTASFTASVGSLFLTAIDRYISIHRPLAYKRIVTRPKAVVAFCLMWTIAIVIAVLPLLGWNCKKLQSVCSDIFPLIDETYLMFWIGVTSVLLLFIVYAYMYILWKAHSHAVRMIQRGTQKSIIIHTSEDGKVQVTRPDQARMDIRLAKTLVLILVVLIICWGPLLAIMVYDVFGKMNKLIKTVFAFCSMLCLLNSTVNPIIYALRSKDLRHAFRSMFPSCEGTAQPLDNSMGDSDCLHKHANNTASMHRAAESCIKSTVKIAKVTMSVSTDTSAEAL
T1 sequence (P47936 whole entry): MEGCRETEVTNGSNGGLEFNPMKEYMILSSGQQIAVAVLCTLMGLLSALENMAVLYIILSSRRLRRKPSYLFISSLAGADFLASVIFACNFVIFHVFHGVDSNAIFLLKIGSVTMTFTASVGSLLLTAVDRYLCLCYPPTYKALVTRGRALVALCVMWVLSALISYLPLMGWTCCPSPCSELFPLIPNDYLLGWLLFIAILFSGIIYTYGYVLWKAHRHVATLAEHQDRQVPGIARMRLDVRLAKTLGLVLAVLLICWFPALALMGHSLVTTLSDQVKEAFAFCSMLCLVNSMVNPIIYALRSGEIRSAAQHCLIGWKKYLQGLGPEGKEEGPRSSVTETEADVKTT

With `CC1=CC[C@@H]2[C@@H](C1)c1c(O)cc(C34CC5CC(CC(C5)C3)C4)cc1OC2(C)C` [AM411], the Ki came to 52 nM at CB2 receptor (mouse spleen, [3H]CP-55,940, Ki from IC50 by Cheng and Prusoff, read-out: Ki in nM for the CB2 Receptor); 6.9 nM at CB1 receptor (setting [1]). In addition, the “selectivity for the CB1 receptor” value on CB1 receptor (CB1 over CB2, statement in words) was “selective agonists”.
Regarding `CC1=CC[C@@H]2[C@@H](C1)c1c(O)cc(C3CC4CCC3(C)C4(C)C)cc1OC2(C)C` (stereo partly shown) [AM731], the “selectivity for the CB2 receptor” value at CB2 receptor is “selective agonists”. In addition, the Ki at CB2 receptor (setting [2]) is below 10 nM; on CB2 receptor (setting [3]), 6.1 nM; at CB1 receptor (setting [4]), 60.6 nM.
`CC1=CC[C@@H]2[C@@H](C1)c1c(O)cc(C3CC4CCC3(C)C4(C)C)cc1OC2(C)C` (stereo partly shown) [AM732]: at CB2 receptor, the “selectivity for the CB2 receptor” value was “selective agonists”. Besides, the Ki on CB2 receptor (setting [3]) turned out to be 2 nM; on CB1 receptor (setting [4]) it was 20.1 nM.
In the case of `CCCCCCC1(c2cc(O)c3c(c2)OC(C)(C)[C@@H]2CC=C(C)C[C@@H]32)SCCS1` [AMG3], the inhibitory constant (Ki) was 1.7 nM at CB2 receptor (setting [3]), below 1 nM at CB1 receptor (setting [5]) and 0.32 nM on CB1 receptor (setting [1]).
Consider `CCCCCCC1(c2cc(O)c3c(c2)OC(C)(C)[C@@H]2CC=C(C)C[C@@H]32)OCCO1` [AMG14], for which the inhibition constant Ki at CB1 receptor (setting [5]) is below 1 nM; on CB1 receptor (setting [4]) it was 0.2 nM.
On to `CCCCCc1cc(O)c2c(c1)OC(C)(C)[C@@H]1CC=C(C)C[C@@H]21` [Δ^8-tetrahydrocannabinol, reference compound], for which the inhibitory constant (Ki) at CB2 receptor (setting [2]) turned out to be 14 nM.
